Values after ≈ are worked out from the molar mass of the structure shown.
Experiments:
[1] = tested on: DDIT3 (DNA-damage-inducible transcript 3); test: Gene expression by Real-time PCR: DDIT3; assay type: cell-based; conditions: DMSO control = 100
Excerpt: (§1) Determination of gene expression by Real-time PCR method (Brilliant QPCR, Agilent Technologies): The real-time polymerase chain reactions further confirm the results obtained from micro array analysis. The Real-time PCR results (shown below) confirmed that Compound Y3 and YM increase the expression of the genes: ANGPT2, DDIT3, LIF and NFKB1Z

[2] = tested on: Fibronectin; test: Fibronectin secretion, skin SK-MEL-5 cells; assay type: cell-based, human; conditions: Homo sapiens, SK-MEL-5; skin SK-MeI-5 cells; 20 ug/ml
Description: Reduction of Fibronectin secretion from ES2 cells after xanifolia-Y treatment. • (Results of F1, F3, F4, F5, F7, F8, F11, F12A, F15, F16, F17) Data in PCT/US2008/002086, 1188-ALA-PCT, filed Feb. 15, 2008 are incorporated herein by reference • (F11) For lung carcinoma cells (H460), at concentration of 20 ug/ml, there are inhibitions of Fibronectin secretion ranged from 20-60%. • (F12A) For bladder carcinoma cells (HTB-9), Xanifolia-Y (10 ug/ml) inhibits 50% of Fibronectin secretion. • (F15) In liver HepG2 cells. 10 ug/ml of xanifolia-Y inhibits 42% secretion of Fibronectin. • (F16) Incubation of brain glioblastoma T98G cells with 10 ug/ml of xanifolia-Y inhibits 27% Fibronectin secretion and with 20 ug/ml Y inhibits 74% Fibronectin secretion. • (F17) For skin SK-MeI-5 cells, the inhibition is 40-57% with 20 ug/ml of Xanifolia-Y.

[3] = tested on: COL1A1 (collagen type 1 alpha 1); test: Gene expression by Real-time PCR: COL1A1; assay type: cell-based; conditions: control = 100
[4] = tested on: regulator of G-protein signalling 4 (RGS4); test: Microarray gene expression in ES2 cells: regulator of G-protein; assay type: cell-based, human
Excerpt: (§2) The composition comprises bioactive compounds from natural plants or synthesis. The majority of the plants are from the Sapindaceae family, which has 140-150 genera with 1400-2000 species. The program is based on our purification methods and biological assays including the MTT assay See International Application No. PCT/US05/31900, filed Sep. 7, 2005, U.S. Ser. No. 11/289,142, filed Nov. 28, 2005, and U.S. Ser. No. 11/131,551, filed May 17, 2005, and PCT/US2008/002086, 1188-ALA-PCT, filed Feb. 15, 2008, the contents of which are incorporated herein by reference. The details of Analysis of gene expression of ES2 cells after Y-treatment by Microarray, Data Analysis Methods and Western blot in PCT/US2008/002086, 1188-ALA-PCT, filed Feb. 15, 2008, the contents of which are incorporated herein by reference

[5] = tested on: potassium channel, subfamily U, member 1 (KCNU1); test: Microarray gene expression in ES2 cells: potassium channel; assay type: cell-based, human; conditions: ID 237273_at
Excerpt: as §2

[6] = tested on: insulin-like growth factor binding protein 7 (IGFBP7); test: Microarray gene expression in ES2 cells: IGFBP7; assay type: cell-based, human; conditions: probe set 201163_s_at
Excerpt: as §2

[7] = tested on: insulin-like growth factor binding protein 1 (IGFBP1); test: Microarray gene expression in ES2 cells: IGFBP1; assay type: cell-based, human; conditions: probe set 205302_at
Excerpt: as §2

[8] = tested on: FN1 (fibronectin 1); test: Gene expression by Real-time PCR: FN1; assay type: cell-based; conditions: control = 100
Excerpt: as §1

[9] = tested on: (bladder) TB9 cells; test: Anti-cancer activity (MTT assay), bladder TB9 cells; assay type: cell-based; conditions: Homo sapiens
Excerpt: (Our purification methods and biological assays including the MTT assay in International Application No. PCT/US05/31900, filed Sep. 7, 2005, U.S. Ser. No. 11/289,142, filed Nov. 28, 2005, and U.S. Ser. No. 11/131,551, filed May 17, 2005, and PCT/US2008/002086, 1188-ALA-PCT, filed Feb. 15, 2008, the contents of which are incorporated herein by reference)
Experiment details of herb extraction, analysis of extract components by HPLC, determination of the cell-growth activity effected by Xanifolia Y with cells derived from different human organs using MTT Assay, purification of the bioactive components from plant extract, fractionation of plant extracts with FPLC, isolation of component Ys with preparative HPLC, determination of the chemical structure, cell experiments and animal studying are disclosed in PCT/US05/31900, U.S. Ser. No. 11/289,142, U.S. Serial 10/906,303, U.S. Ser. No. 11/131,551 and U.S. Ser. Nos. 11/683,198, filed on Mar. 7, 2007, PCT/US2007/077273, filed Aug. 30, 2007, U.S. Ser. No. 60/890,380, filed on Feb. 16, 2007, U.S. Nos. 60/947,705, filed on Jul. 3, 2007, PCT/US2008/002086, 1188-ALA-PCT, filed Feb. 15, 2008, the contents of which are incorporated herein by reference. Experiments 1-23 of PCT/US2008/002086, 1188-ALA-PCT, filed Feb. 15, 2008 are incorporated herein by reference.

Question: What does the source list for `C/C=C(/C)C(=O)O[C@H]1[C@H](OC(=O)/C(C)=C\C)[C@@]2(CO)C(CC1(C)C)C1=CCC3[C@@]4(C)CC[C@H](O[C@@H]5OC(C(=O)O)[C@@H](O)[C@@H](O[C@@H]6O[C@@H](CO)[C@@H](O)C6O)C5O[C@@H]5OC(CO)[C@H](O)[C@@H](O)C5O)C(C)(C)C4CC[C@@]3(C)[C@]1(C)[C@@H](O)[C@H]2O` (stereo partly drawn) [Y, 3-O-[β-D-galactopyranosyl(1→2)]-α-L-arabinofuranosy (1→3)-β-D-glucuronopyranosyl-21,22-O-diangeloyl-3β, 15α, 16α, 21β, 22α, 28-hexahydroxyolean-12-ene]?
Answer: DDIT3 expression, % of control [1]: 213 % of control; inhibition at 20 µg/mL [2]: 40 to 57%; COL1A1 expression, % of control [3]: 49.9 % of control; RGS4 expression, treated/D (DMSO control) ([4]; probe set 204337_at): −3.4; RGS4 expression, treated/D (DMSO control) ([4]; probe set 204338_s_at): −2.5; RGS4 expression, treated/D (DMSO control) ([4]; probe set 204339_s_at): −3.5; KCNU1 expression, treated/D (DMSO control) [5]: −4.0; IGFBP7 expression, treated/D (DMSO control) [6]: −1.4; IGFBP1 expression, treated/D (DMSO control) [7]: −1.7; FN1 expression, % of control [8]: 44.1 % of control; IC50 [9]: 5 µg/mL (≈ 4.38 µM)
